Test results reported in patent US9914737B2, “Triazolopyrimidinone or triazolopyridinone derivatives, and use thereof” (ST PHARM CO., LTD., priority 2014, dated 2018).

molecular target: T1, tankyrase 1 (Homo sapiens, UniProt O95271); assay: Analysis of activity of tankyrase 1 (Trevigen kit, ELISA absorbance at 450 nm); type: biochemical; conditions: not given
T1 construct: purchased Trevigen 4700-096-K
T1 sequence (O95271 1-1327): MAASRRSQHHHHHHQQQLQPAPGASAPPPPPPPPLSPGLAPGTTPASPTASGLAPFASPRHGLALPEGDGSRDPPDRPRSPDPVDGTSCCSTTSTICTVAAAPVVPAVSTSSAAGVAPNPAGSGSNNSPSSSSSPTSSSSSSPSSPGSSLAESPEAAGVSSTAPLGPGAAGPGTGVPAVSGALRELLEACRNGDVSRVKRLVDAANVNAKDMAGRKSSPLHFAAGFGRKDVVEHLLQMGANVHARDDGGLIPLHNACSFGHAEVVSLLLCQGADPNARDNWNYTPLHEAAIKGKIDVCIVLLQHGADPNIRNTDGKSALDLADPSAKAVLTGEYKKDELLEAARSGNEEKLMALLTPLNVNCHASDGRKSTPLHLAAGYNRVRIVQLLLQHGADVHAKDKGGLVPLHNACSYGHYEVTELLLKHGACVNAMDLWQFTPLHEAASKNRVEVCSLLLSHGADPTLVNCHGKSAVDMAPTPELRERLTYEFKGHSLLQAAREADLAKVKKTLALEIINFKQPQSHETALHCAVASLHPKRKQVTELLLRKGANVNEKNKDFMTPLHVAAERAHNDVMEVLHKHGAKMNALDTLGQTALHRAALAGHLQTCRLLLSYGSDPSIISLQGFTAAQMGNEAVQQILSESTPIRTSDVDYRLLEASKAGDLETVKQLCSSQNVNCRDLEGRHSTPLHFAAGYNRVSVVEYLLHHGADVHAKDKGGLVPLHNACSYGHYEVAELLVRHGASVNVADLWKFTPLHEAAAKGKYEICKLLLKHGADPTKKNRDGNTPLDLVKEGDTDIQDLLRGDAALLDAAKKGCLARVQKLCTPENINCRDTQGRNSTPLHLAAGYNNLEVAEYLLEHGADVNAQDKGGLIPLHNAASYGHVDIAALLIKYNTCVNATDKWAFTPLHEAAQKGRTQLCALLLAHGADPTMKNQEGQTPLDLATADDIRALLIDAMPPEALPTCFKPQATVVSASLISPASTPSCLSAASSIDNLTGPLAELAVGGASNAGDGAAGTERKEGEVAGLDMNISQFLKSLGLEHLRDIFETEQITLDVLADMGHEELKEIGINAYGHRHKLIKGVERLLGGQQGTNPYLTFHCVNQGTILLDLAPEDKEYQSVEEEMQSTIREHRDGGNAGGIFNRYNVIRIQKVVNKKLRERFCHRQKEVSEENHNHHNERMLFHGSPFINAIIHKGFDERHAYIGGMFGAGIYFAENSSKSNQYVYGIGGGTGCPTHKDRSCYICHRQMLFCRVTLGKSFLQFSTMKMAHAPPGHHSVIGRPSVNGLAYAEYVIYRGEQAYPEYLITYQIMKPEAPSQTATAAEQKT
Experimental: Activities of novel compounds synthesized according to Examples 1 to 72 against tankyrase 1 were analyzed using a Trevigen kit (Cat. No. 4700-096-K). Poly PAR histone protein-coated 96-well plate, anti-PAR monoclonal antibody and goat anti-mouse IgG-HRP were used for measurement of absorbance by ELISA method. Specifically, 20× I-PAR assay buffer was diluted to 1× by adding water, and 50 μL of the diluted buffer was added to each well of the 96-well plate followed by reacting at rt for 30 min. Then, the supernatant was completely removed from each well and 10 μL of 1× I-PAR assay buffer and 15 μL of assay substrate were added to each well along with 1 μL of a 50× solution of inhibitors to be tested, which were the compounds obtained in the Examples 1 to 72. 10 mUnits/μL of tankyrase 1 enzyme was diluted 50-fold with 1× I-PAR assay buffer and 25 μL of the diluted enzyme was added to each well and reacted while stirring at rt for 30 min. One without any compound of the present invention was used as a positive control and another containing 1× I-PAR assay buffer with the same volume instead of tankyrase 1 enzyme was used as a negative control. Upon completion of the reaction, 200 μL of PBSX, which was prepared by adding 0.1% triton X-100 to PBS, was added and removed and this washing process was repeated twice. Washing was repeated twice more using PBS in the same manner. 5× antibody diluent was diluted with distilled water to 1× concentration, 50 μL of the diluted goat anti-mouse IgG-HRP to 1/2000 was added to each well and reacted while stirring at rt for 30 min. Washes were carried out twice using PBSX and PBS, respectively. After adding 50 μL of TACS-sapphire to each well of the plate, the plate was blocked from light to react for 10 min to 15 min and the color of the reaction solution turned blue. To stop the reaction, 50 μL of 0.2N HCl was added to turn the solution yellow. Finally, the absorbance of the resulting solution was measured at 450 nm.

Row | Structure (SMILES) | IC50 [nM]
1 | Cn1nnc2c(=O)[nH]c(N3CCN(c4c(F)cc(OC5COC5)cc4F)CC3)cc21 [compound 62, 6-(4-(2,6-Difluoro-4-(oxetan-3-yloxy)phenyl)piperazin-1-yl)-1-methyl-1H-[1,2,3]triazolo[4,5-c]pyridin-4(5H)-one] | 22.1
2 | Cn1nnc2c(=O)[nH]c(N3CCN(c4c(F)cccc4F)CC3)nc21 [compound 21, 5-(4-(2,6-Difluorophenyl)piperazin-1-yl)-3-methyl-3H-[1,2,3]triazolo[4,5-d]pyrimidin-7(6H)-one] | 8.9

same assay, conditions: tankyrase 1 enzyme, Trevigen kit Cat. No. 4700-096-K, 30 min at rt; read-out: TNKS1 (IC50)

Row | Structure (SMILES) | IC50 [nM]
3 | Cn1nnc2c(=O)[nH]c(N3CCN(c4c(F)cc(OCCO)cc4F)CC3)cc21 [compound 57, 6-(4-(2,6-Difluoro-4-(2-hydroxyethoxy)phenyl)piperazin-1-yl)-1-methyl-1H[1,2,3]triazolo[4,5-c]pyridin-4(5H)-one] | 7.98
4 | COCCN(CCOC)c1cc(F)c(N2CCN(c3nc4c(nnn4C)c(=O)[nH]3)CC2)c(F)c1 [compound 34, 5-(4-(4-(Bis(2-methoxyethyl)amino)-2,6-difluorophenyl)piperazin-1-yl)-3-methyl-3H-[1,2,3]triazolo[4,5-d]pyrimidin-7(6H)-one] | 67.7
5 | Cn1nnc2c(=O)[nH]c(N3CCN(c4c(F)cc(OCCN5CCCC5)cc4F)CC3)cc21 [compound 67, 6-(4-(2,6-Difluoro-4-(2-(pyrrolidin-1-yl)ethoxy)phenyl)piperazin-1-yl)-1-methyl-1H-[1,2,3]triazolo[4,5-c]pyridin-4(5H)-one] | 18.6
6 | COCCN(C)Cc1cc(F)c(N2CCN(c3cc4c(nnn4C)c(=O)[nH]3)CC2)c(F)c1 [compound 65, 6-(4-(2,6-Difluoro-4-(((2-methoxyethyl)(methyl)amino)methyl)phenyl)piperazin-1-yl)-1-methyl-1H-[1,2,3]triazolo[4,5-c]pyridin-4(5H)-one] | 40.2
7 | COC(C)c1cc(F)c(N2CCN(c3cc4c(nnn4C)c(=O)[nH]3)CC2)c(F)c1 (stereo not shown) [compound 64, 6-(4-(2,6-Difluoro-4-(1-methoxyethyl)phenyl)piperazin-1-yl)-1-methyl-1H[1,2,3]triazolo[4,5-c]pyridin-4(5H)-one] | 31.2
8 | Cn1nnc2c(=O)[nH]c(N3CCN(c4c(F)cc(OCCN5CCOCC5)cc4F)CC3)cc21 [compound 54, 6-(4-(2,6-Difluoro-4-(2-morpholinoethoxy)phenyl)piperazin-1-yl)-1-methyl-1H-[1,2,3]triazolo[4,5-c]pyridin-4(5H)-one] | 11
9 | COCCN(C)Cc1cc(F)c(N2CCN(c3nc4c(nnn4C)c(=O)[nH]3)CC2)c(F)c1 [compound 20, 5-(4-(2,6-Difluoro-4-(((2-methoxyethyl)(methyl)amino)methyl)phenyl)piperazin-1-yl)-3-methyl-3H-[1,2,3]triazolo[4,5-d]pyrimidin-7(6H)-one] | 83.1
10 | CN1CCN(CCOc2cc(F)c(N3CCN(c4nc5c(nnn5C)c(=O)[nH]4)CC3)c(F)c2)CC1 [compound 32, 5-(4-(2,6-Difluoro-4-(2-(4-methylpiperazin-1-yl)ethoxy)phenyl)piperazin-1-yl)-3-methyl-3H-[1,2,3]triazolo[4,5-d]pyrimidin-7(6H)-one] | 120
11 | Cn1nnc2c(=O)[nH]c(N3CCN(c4c(F)cc(OCCN5CCC(C)(O)CC5)cc4F)CC3)nc21 [compound 43, 5-(4-(2,6-Difluoro-4-(2-(4-hydroxy-4-methylpiperidin-1-yl)ethoxy)phenyl)piperazin-1-yl)-3-methyl-3H-[1,2,3]triazolo[4,5-d]pyrimidin-7(6H)-one] | 50.9
12 | Cn1nnc2c(=O)[nH]c(N3CCN(c4c(F)cc(OCC(O)CO)cc4F)CC3)cc21 (stereo not shown) [compound 59, 6-(4-(4-(2,3-Dihydroxypropoxy)-2,6-difluorophenyl)piperazin-1-yl)-1-methyl-1H-[1,2,3]triazolo[4,5-c]pyridin-4(5H)-one] | 16
13 | Cn1nnc2c(=O)[nH]c(N3CCN(c4c(F)cc(OCC(O)CO)cc4F)CC3)nc21 (stereo not shown) [compound 12, 5-(4-(4-(2,3-Dihydroxypropoxy)-2,6-difluorophenyl)piperazin-1-yl)-3-methyl-3H-[1,2,3]triazolo[4,5-d]pyrimidin-7(6H)-one] | 12.9
